According to publication PMC5059851, “Inhibition of Hedgehog-dependent tumors and cancer stem cells by a newly identified naturally occurring chemotype” (Cell Death & Disease, 2016):

The compounds below were run on Hh pathway (Gli-responsive firefly luciferase reporter) (assay: Hh-dependent Gli-luciferase reporter assay in SAG-treated NIH3T3 Shh-Light II cells). Conditions: SAG (200 nM)-treated NIH3T3 Shh-Light II cells, 48 h, normalized to Renilla; N.A. = Not Active.
Assay type: cell-based
Procedure: The inhibitory properties of the potential Smo antagonists 1–17 were investigated in a luciferase reporter assay that is widely used for characterizing Hh inhibitors. NIH3T3 Shh-Light II cells, stably incorporating a Gli-responsive firefly luciferase reporter (Gli-RE),[25] were treated with the synthetic Smo agonist SAG[24] alone or in combination with the selected small molecules to evaluate their dose–response ability to suppress Hh pathway. […] We excluded the possibility that inhibition activity in this assay was mediated by cytotoxicity because no decrease was shown in the luciferase assay control Renilla as observed instead for 13–17.
The luciferase assay was performed in Shh-Light II cells, stably incorporating a Gli-responsive luciferase reporter and the pRL-TK Renilla (normalization control), treated for 48 h with SAG (200 nM) and the studied compounds. Luciferase and Renilla activity were assayed with a dual-luciferase assay system according to the manufacturer's instruction (Biotium Inc., Hayward, CA, USA). Results are expressed as luciferase/Renilla ratios and represent the mean±S.D. of three experiments, each performed in triplicate.

Q: With `COc1cc(OC)c2c(=O)c(-c3ccc4c(c3)OCO4)coc2c1` [Compound 9, 3-(1,3-benzodioxol-5-yl)-5,7-dimethoxy-4H-chromen-4-one] as the compound, how does the IC50 read?
A: 24.1 ± 1.6 µM

Q: For `CC1=C[C@@H]2c3c(O)cc(/C=C/c4ccc(O)cc4O)cc3OC3(c4ccc(O)c5c4OC(C)(C)C=C5)Oc4cc(O)ccc4[C@@H](C1)[C@H]23` (stereo partly drawn) [Compound 6, (3aS,13bS,13cR)-6-[(E)-2-(2,4-dihydroxyphenyl)vinyl]-8a-(5-hydroxy-2,2-dimethyl-2H-chromen-8-yl)-2-methyl-1,8a,13b,13c-tetrahydro-3aH-benzo[3,4]isochromeno[1,8-bc]chromene-4,11-diol], which IC50 is on record?
A: 30 ± 1.93 µM

Q: How did the IC50 turn out when `COc1ccc(C=CC(=O)c2c(OC)cc(OC)c(OC)c2OC)cc1OC` [Compound 10, 3-(3,4-dimethoxy-phenyl)-1-(2,3,4,6-tetramethoxy-phenyl)-2-propen-1-one] was run?
A: 31.3 ± 2.29 µM

Q: For `COc1c(C2COc3cc(O)c(CC=C(C)C)c(O)c3C2=O)ccc(O)c1CC=C(C)C` (stereo not shown) [Compound 11, 5,7-dihydroxy-3-[4-hydroxy-2-methoxy-3-(3-methyl-2-buten-1-yl)phenyl]-6-(3-methyl-2-buten-1-yl)-2,3-dihydro-4H-chromen-4-one], which IC50 is on record?
A: 22.6 µM

Q: How did the IC50 turn out when `CC(C)=CCc1c(O)ccc(C(=O)[C@H]2[C@@H](c3c(O)cc(/C=C/c4ccc(O)cc4O)cc3O)C=C(C)C[C@@H]2c2ccc(O)cc2O)c1O` [Compound 8, [2,4-dihydroxy-3-(3-methyl-2-buten-1-yl)phenyl][(1R,2S,6S)-6-(2,4-dihydroxyphenyl)-2-{4-[(E)-2-(2,4-dihydroxyphenyl)vinyl]-2,6-dihydroxyphenyl}-4-methyl-3-cyclohexen-1-yl]methanone] was run?
A: 27.5 ± 2.67 µM

Q: How did the IC50 turn out when “3-benzo[1,3]dioxol-5-yl-1-(2,4,5-trimethoxy-phenyl)-propan-1-one [Compound 7]” was run?
A: 38.5 ± 3.57 µM

Each compound was assayed against T1, human Smo D473H (Homo sapiens, UniProt Q99835, D473H) (assay: Bodipy-Cyclopamine (BC) binding assay, HEK293T cells transfected with human Smo D473H). Conditions: resistant Smo mutants versus WT.
T1 construct: Myc-DDK; expressed in transfected cells; host or cells: HEK293T
Procedure: Cells were washed in PBS supplemented with 0.5% fetal bovine serum, fixed in 4% paraformaldehyde in phosphate-buffered saline (PBS) for 10 min, and incubated for 2 h at 37 °C both in the same medium supplemented with Bodipy-Cyclopamine (5 nM) and the studied compounds. The cells were permeabilized with Triton X100 (Sigma) 0.2%. Dako Fluorescent mounting (Dako, Carpinteria, CA, USA) was used as mounting medium and Hoechst reagent for staining of the cell nuclei. Bodipy (green) and Hoechst (blue) signals were analyzed in three to four representative fields per coverslip (× 20 magnification, 1000 cells/field). Data were expressed as percentage of BC incorporation observed with BC alone.[95]

T1 sequence (Q99835 28-787 D473H): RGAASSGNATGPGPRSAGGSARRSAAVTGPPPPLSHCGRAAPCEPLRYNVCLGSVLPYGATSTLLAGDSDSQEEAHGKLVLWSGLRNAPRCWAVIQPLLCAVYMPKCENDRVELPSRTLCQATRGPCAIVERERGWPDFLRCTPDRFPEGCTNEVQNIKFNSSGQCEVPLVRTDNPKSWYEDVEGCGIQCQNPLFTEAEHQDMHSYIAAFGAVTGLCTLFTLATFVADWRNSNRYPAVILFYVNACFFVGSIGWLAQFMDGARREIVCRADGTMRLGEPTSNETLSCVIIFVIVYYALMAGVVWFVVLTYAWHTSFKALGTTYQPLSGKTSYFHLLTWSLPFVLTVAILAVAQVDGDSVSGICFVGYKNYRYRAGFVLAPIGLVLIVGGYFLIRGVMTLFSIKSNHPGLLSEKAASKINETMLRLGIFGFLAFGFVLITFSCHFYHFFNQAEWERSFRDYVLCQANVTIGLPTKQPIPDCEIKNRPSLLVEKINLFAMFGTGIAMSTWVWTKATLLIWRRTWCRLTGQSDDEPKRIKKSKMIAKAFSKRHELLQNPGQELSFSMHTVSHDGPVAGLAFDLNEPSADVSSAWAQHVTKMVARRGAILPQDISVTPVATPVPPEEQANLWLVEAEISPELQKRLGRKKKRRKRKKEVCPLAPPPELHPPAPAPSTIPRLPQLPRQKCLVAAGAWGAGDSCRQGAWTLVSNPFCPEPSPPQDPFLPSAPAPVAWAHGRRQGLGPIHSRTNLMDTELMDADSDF

Q: With `CS(=O)(=O)c1ccc(C(=O)Nc2ccc(Cl)c(-c3ccccn3)c2)c(Cl)c1` [Vismodegib, reference compound] as the compound, how does the “loss of affinity for the resistant Smo mutants in binding assay” value read?
A: about 1000 fold
